Key:
Details in all cases: incubation time: 72 h
[1] = tested on: HCC1937; assay: normalised response (% of control), CellTiter-Glo; higher = more viable cells (100 = DMSO, 0 = benzethonium chloride kill control)
Procedure: (§1)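 DSRT, 72 h incubation, CellTox Green / CellTiter-Glo readout. Signal is normalised to DMSO and benzethonium chloride controls. Value is the normalised response at dose 3.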

[2] = tested on: HDQ-P1; assay: as above
Procedure: as §1

[3] = tested on: CAL-51; assay: as above
Procedure: as §1

[4] = tested on: SK-BR-3; assay: as above
Procedure: as §1

[5] = tested on: CAL-120; assay: as above
Procedure: as §1

[6] = tested on: DU-4475; assay: as above
Procedure: as §1

[7] = tested on: MCF-10A; assay: as above
Procedure: as §1

[8] = tested on: Hs578T; assay: as above
Procedure: as §1

[9] = tested on: BT-549; assay: as above
Procedure: as §1

[10] = tested on: CAL-85-1; assay: as above
Procedure: as §1

[11] = tested on: HCC1599; assay: as above
Procedure: as §1

[12] = tested on: MDA-MB-436; assay: as above
Procedure: as §1

[13] = tested on: MDA-MB-468; assay: as above
Procedure: as §1

[14] = tested on: MDA-MB-453; assay: as above
Procedure: as §1

[15] = tested on: HCC1143; assay: as above
Procedure: as §1

[16] = tested on: CAL-148; assay: as above
Procedure: as §1

[17] = tested on: MDA-MB-231; assay: as above
Procedure: as §1

[18] = tested on: BT-474; assay: as above
Procedure: as §1

[19] = tested on: MFM-223; assay: as above
Procedure: as §1

[20] = tested on: HCC1937; assay: normalised response (% of control), CellTox Green; higher = less cell death (100 = DMSO, 0 = benzethonium chloride kill control)
Procedure, shortened: (§2)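 Breast cancer cell lines were exposed for 72 h in 384-well plates to compound at 5 concentrations, 10-fold apart, covering a 10,000-fold range fixed for each compound. Plates were read for CellTox Green fluorescence and CellTiter-Glo luminescence and normalised to 0.1 % DMSO (100) and a positive kill control (0). Each value is the normalised signal at one concentration of the series.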

[21] = tested on: HDQ-P1; assay: as above
Procedure, shortened: as §2

[22] = tested on: CAL-51; assay: as above
Procedure, shortened: as §2

[23] = tested on: CAL-120; assay: as above
Procedure, shortened: as §2

[24] = tested on: DU-4475; assay: as above
Procedure, shortened: as §2

[25] = tested on: MCF-10A; assay: as above
Procedure, shortened: as §2

[26] = tested on: Hs578T; assay: as above
Procedure, shortened: as §2

[27] = tested on: BT-549; assay: as above
Procedure, shortened: as §2

[28] = tested on: HCC1599; assay: as above
Procedure, shortened: as §2

[29] = tested on: MDA-MB-436; assay: as above
Procedure, shortened: as §2

[30] = tested on: MDA-MB-468; assay: as above
Procedure, shortened: as §2

[31] = tested on: MDA-MB-453; assay: as above
Procedure, shortened: as §2

[32] = tested on: HCC1143; assay: as above
Procedure, shortened: as §2

[33] = tested on: MDA-MB-231; assay: as above
Procedure, shortened: as §2

[34] = tested on: BT-474; assay: as above
Procedure, shortened: as §2

[35] = tested on: MFM-223; assay: as above
Procedure, shortened: as §2

[36] = tested on: CAL-85-1; assay: as above
Procedure, shortened: as §2

[37] = tested on: CAL-148; assay: as above
Procedure, shortened: as §2

Row | SMILES | normalised response [1] | normalised response [2] | normalised response [3] | normalised response [4] | normalised response [5] | normalised response [6] | normalised response [7] | normalised response [8] | normalised response [9] | normalised response [10] | normalised response [11] | normalised response [12] | normalised response [13] | normalised response [14] | normalised response [15] | normalised response [16] | normalised response [17] | normalised response [18] | normalised response [19] | normalised response [20] | normalised response [21] | normalised response [22] | normalised response [23] | normalised response [24] | normalised response [25] | normalised response [26] | normalised response [27] | normalised response [28] | normalised response [29] | normalised response [30] | normalised response [31] | normalised response [32] | normalised response [33] | normalised response [34] | normalised response [35] | normalised response [36] | normalised response [37]
1 | CN[C@@H](C)C(=O)N[C@H]1CN(C(=O)CC(C)C)CC[C@H]2CC[C@@H](C(=O)NC(c3ccccc3)c3ccccc3)N2C1=O [AT-406] (100 nM) | 103% | 95.9% | 109% | 99.9% | 92.5% | 102% | 111% | 100% | 47.4% | 86.6% | 79.1% | 105% | 103% | 89.8% | 103% | 102% | 63.9% | 54% | 102% | 95.2% | 86.4% | 96.3% | 83% | 104% | 101% | 97.2% | 68.8% | 101% | 76.2% | 114% | 102% | 70.4% | 35.2% | 94.9% | 104% |  | 
2 | CNC(=O)c1ccccc1Sc1ccc2c(/C=C/c3ccccn3)n[nH]c2c1 [Axitinib] (100 nM) | 97.8% | 102% | 81.6% | 103% | 104% | 111% | 100% | 98.5% | 107% | 109% | 101% | 102% | 93.8% | 110% | 102% | 112% | 111% | 104% | 90.5% | 102% | 116% | 107% | 99.2% | 104% | 98.7% | 111% | 113% | 113% |  | 132% | 110% | 105% | 105% | 102% | 96% | 104% | 108%
3 | CC(O)(CS(=O)(=O)c1ccc(F)cc1)C(=O)Nc1ccc(C#N)c(C(F)(F)F)c1 (configuration not stated) [Bicalutamide] (100 nM) | 100% | 100% | 80.7% | 113% | 105% | 105% | 106% | 96.7% | 102% | 98.9% | 103% | 107% | 105% | 114% | 103% | 110% | 117% | 108% | 107% | 106% | 115% | 98.3% | 99.5% | 100% | 85.1% | 90.6% | 85% | 116% | 108% | 131% | 108% | 107% | 110% | 102% | 89.8% | 95.9% | 102%
4 | Cc1nc(C(=O)NCC(=O)O)c(O)c2ccc(Oc3ccccc3)cc12 [FG-4592] (100 nM) | 98% | 98.3% | 97.4% | 112% | 102% | 103% | 115% | 105% | 106% | 104% | 112% | 98.6% | 97.1% | 101% | 106% | 108% | 111% | 101% | 106% | 79.8% | 106% | 102% | 102% | 105% | 101% | 94.9% | 105% | 90.1% | 97% | 114% | 103% | 109% | 112% | 98.2% | 92.8% | 103% | 95.8%
5 | CC(C)(C)NC(=O)[C@H]1CC[C@H]2[C@@H]3CC[C@H]4NC(=O)C=C[C@]4(C)[C@H]3CC[C@]12C [Finasteride] (100 nM) | 95.7% | 96.6% | 87.7% | 101% | 114% | 104% | 110% | 105% | 100% | 98.5% | 97.8% | 107% | 94.9% | 109% | 98.9% | 108% | 104% | 99.2% | 104% | 99.7% | 83.5% | 101% | 100% | 102% | 95.4% | 107% | 102% | 104% | 94.8% | 98.8% | 103% | 93.1% | 101% | 99% | 85.2% | 100% | 57.3%
6 | CC(C)C[C@H](NC(=O)[C@@H](COC(C)(C)C)NC(=O)[C@H](Cc1ccc(O)cc1)NC(=O)[C@H](CO)NC(=O)[C@H](Cc1c[nH]c2ccccc12)NC(=O)[C@H](Cc1cnc[nH]1)NC(=O)[C@@H]1CCC(=O)N1)C(=O)N[C@@H](CCCNC(=N)N)C(=O)N1CCC[C@H]1C(=O)NNC(N)=O [Goserelin] (100 nM) | 95.8% | 99.9% | 71% | 92.7% | 103% | 97.4% | 94% | 97.1% | 103% | 97.3% | 94.2% | 101% | 102% | 101% | 98.7% | 93.8% | 99% | 99.2% | 94.9% | 89.5% | 108% | 60.7% | 96.2% | 97.8% | 98.9% | 78.9% | 108% | 86.3% | 89.7% | 129% | 105% | 55.7% | 89.7% | 101% | 99.1% | 99.8% | 87.4%
7 | O=C(O)CNC(=O)c1c(O)c2ccccc2n(Cc2ccccc2)c1=O [IOX-2] (500 nM) | 97.2% | 102% | 61.5% | 96.3% | 103% | 101% | 104% | 99.4% | 94.7% | 99% | 98.5% | 94.4% | 90.4% | 105% | 98.4% | 92.9% | 100% | 99.2% | 97.1% | 95.6% | 100% | 73.4% | 97.7% | 111% | 95.2% | 99.3% | 97.3% | 99.3% | 98.3% | 115% | 104% | 83.3% | 110% | 103% | 101% | 112% | 73.2%
8 | CC(=O)[C@]1(O)Cc2c(O)c3c(c(O)c2[C@@H](O[C@H]2C[C@H](N)[C@H](O)[C@H](C)O2)C1)C(=O)c1ccccc1C3=O [Idarubicin] (10 nM) | 99.2% | 101% | 73.7% | 105% | 106% | 96% | 100% | 94.5% | 89.7% | 105% | 118% | 95.9% | 92.9% | 110% | 109% | 102% | 109% | 98.7% | 107% | 55.8% | 105% | 79.8% | 97.7% | 100% |  | 114% | 83.3% | 113% | 96% | 118% | 104% | 114% | 106% | 99.2% | 97.6% | 97.7% | 93%

From the supplement of paper PMC4862054
